Values joined by “and” are separate entries in the source; they are usually repeats but may differ in a detail not shown here. Identical values can stand only once.
What was measured:
Format in all cases: biochemical
[1] = target: T1, methylparaoxon (MePOX)-inhibited human recombinant AChE (HssAChE) (Homo sapiens, UniProt P22303); settings: for MePOX-HssAChE Reactivation (% ± SD): pH 7.4
T1 construct: purchased Sigma-Aldrich

[2] = target: T2, diisopropylfluorophosphate (DFP)-inhibited human recombinant AChE (HssAChE) (Homo sapiens, UniProt P22303); settings: pH 7.4
T2 construct: purchased Sigma-Aldrich
T2 sequence (P22303 32-614): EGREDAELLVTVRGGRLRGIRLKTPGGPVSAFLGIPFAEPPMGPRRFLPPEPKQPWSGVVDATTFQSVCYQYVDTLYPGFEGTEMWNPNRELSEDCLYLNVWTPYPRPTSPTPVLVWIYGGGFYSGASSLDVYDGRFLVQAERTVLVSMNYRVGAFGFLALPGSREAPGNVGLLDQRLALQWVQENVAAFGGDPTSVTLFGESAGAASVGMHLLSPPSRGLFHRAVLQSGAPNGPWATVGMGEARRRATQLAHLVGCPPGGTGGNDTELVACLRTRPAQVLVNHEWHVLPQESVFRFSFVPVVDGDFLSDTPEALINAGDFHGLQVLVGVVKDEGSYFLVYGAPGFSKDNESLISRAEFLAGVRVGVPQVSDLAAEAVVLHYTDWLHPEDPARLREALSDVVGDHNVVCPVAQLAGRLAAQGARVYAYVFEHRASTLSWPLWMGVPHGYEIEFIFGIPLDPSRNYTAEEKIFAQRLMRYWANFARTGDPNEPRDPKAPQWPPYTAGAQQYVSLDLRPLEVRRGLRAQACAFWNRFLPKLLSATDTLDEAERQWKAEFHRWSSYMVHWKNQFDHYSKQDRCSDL

[3] = target: T3, paraoxon (POX)-inhibited human recombinant AChE (HssAChE) (Homo sapiens, UniProt P22303); settings: for POX-HssAChE Reactivation (% ± SD): pH 7.4
T3 construct: purchased Sigma-Aldrich
T3 sequence (P22303 32-614): as above

T1 sequence (P22303 32-614): as above

NC(=NO)c1cc[n+](CCCC[n+]2ccc(C=NO)cc2)cc1.[Br-].[Br-] [Compound 23, 4-(1-Amino-1-hydroxyiminomethyl)-4′-hydroxyiminomethyl-1,1′-(but-1,4-diyl)-bispyridinium dibromide]
MePOX-HssAChE Reactivation (% ± SD) [1]: 21% and 20.2 ± 1.0% and 20.7 ± 0.4% | DFP-HssAChE Reactivation (% ± SD) [2]: 3.1 ± 0.8% and 2.0 ± 0.2%

ON=Cc1cc[n+](C/C=C/C[n+]2ccc(/C=N/O)cc2)cc1 [Compound 8, reference compound]
MePOX-HssAChE Reactivation (% ± SD) [1]: 19.2 ± 0.9% and 22.8 ± 0.2% | DFP-HssAChE Reactivation (% ± SD) [2]: 1.1 ± 0.3% and 1.5 ±0.2%

NC(=O)c1cc[n+](C/C=C/C[n+]2ccc(/C=N/O)cc2)cc1 [Compound 9, (E)-1-(4-Carbamoylpyridinium)-4-(4-hydroxyiminomethylpyridinium)-but-2-ene Dibromide, reference compound]
MePOX-HssAChE Reactivation (% ± SD) [1]: 55.9 ± 0.5% and 41.1 ± 0.1% | DFP-HssAChE Reactivation (% ± SD) [2]: 4.4 ± 0.1% and 2.1 ± 0.4%

NC(=O)c1cc[n+](CCCC[n+]2ccc(/C=N/O)cc2)cc1 [Compound 6, reference compound]
MePOX-HssAChE Reactivation (% ± SD) [1]: 54.4 ± 0.9% and 29.1 ± 0.4% | DFP-HssAChE Reactivation (% ± SD) [2]: 3.8 ± 0.1% and 1.4 ± 0.1%

C[n+]1ccccc1/C=N/O [Compound 1, pralidoxime, reference compound]
POX reactivation, maximum over both concentrations [3]: up to 11% | POX-HssAChE Reactivation (% ± SD) [3]: 10.7 ± 0.3% and 2.1 ± 0.1% | MePOX reactivation, maximum over both concentrations [1]: up to 30% | MePOX-HssAChE Reactivation (% ± SD) [1]: 30.2 ± 0.3% and 22.4 ± 0.7% | DFP-HssAChE Reactivation (% ± SD) [2]: 1.3 ± 0.6% and 0.1 ± 0.4%

ON=Cc1cc[n+](CCCC[n+]2ccccn2)cc1 [Compound 11, 4-Hydroxyiminomethyl-1,1′-(but-1,4-diyl)-1-pyridinium-1′-pyridazinium dibromide]
POX-HssAChE Reactivation (% ± SD) [3]: 6.3 ± 0.8% and 3.0 ± 0.3% | MePOX-HssAChE Reactivation (% ± SD) [1]: 7.1 ± 0.7% and 11.8 ± 0.4% | DFP-HssAChE Reactivation (% ± SD) [2]: 1.2 ± 0.7% and 1.0 ± 0.4%

O=C(O)c1cc[n+](CCCC[n+]2ccc(C=NO)cc2)cc1.[Br-].[Br-] [Compound 20, 4-Carboxy-4′-hydroxyiminomethyl-1,1′-(but-1,4-diyl)-bispyridinium dibromide]
MePOX-HssAChE Reactivation (% ± SD) [1]: 9.5 ± 0.3% and 8.8 ± 0.4% | DFP-HssAChE Reactivation (% ± SD) [2]: 1.1 ± 0.5% and 0.4 ± 0.1%

ON=Cc1cc[n+](CCCC[n+]2ccc3ccccc3c2)cc1 [Compound 13, 4-Hydroxyiminomethyl-1,1′-(but-1,4-diyl)-1-pyridinium-1′-isoquinolinium dibromide]
POX-HssAChE Reactivation (% ± SD) [3]: 9.1 ± 0.3% and 8.7 ± 0.3% | MePOX-HssAChE Reactivation (% ± SD) [1]: 8.2 ± 0.8% and 16.9 ± 0.4% | DFP-HssAChE Reactivation (% ± SD) [2]: 0.7 ± 0.2% and 1.1 ± 0.2%

CCOC(=O)c1cc[n+](CCCC[n+]2ccc(C=NO)cc2)cc1 [Compound 21, 4-Ethylcarboxy-4′-hydroxyiminomethyl-1,1′-(but-1,4-diyl)-bispyridinium dibromide]
POX-HssAChE Reactivation (% ± SD) [3]: 7.1 ± 0.7% and 4.0 ± 0.6% | MePOX-HssAChE Reactivation (% ± SD) [1]: 3.8 ± 0.4% and 7.2 ± 0.2% | DFP-HssAChE Reactivation (% ± SD) [2]: 0.8 ± 0.3% and 1.1 ± 0.2%

ON=Cc1cc[n+](CCC[n+]2ccc(/C=N/O)cc2)cc1 [Compound 4, trimedoxime, reference compound]
MePOX-HssAChE Reactivation (% ± SD) [1]: 51.4 ± 0.9% and 59.5 ± 0.7% | DFP-HssAChE Reactivation (% ± SD) [2]: 10.0 ± 0.5% and 2.7 ± 0.3%

NC(=O)c1cc[n+](CCCC[n+]2ccc(C=NO)cc2)cc1C(N)=O.[Br-].[Br-] [Compound 24, 3,4-Dicarbamoyl-4′-hydroxyiminomethyl-1,1′-(but-1,4-diyl)-bispyridinium dibromide]
POX-HssAChE Reactivation (% ± SD) [3]: 2.0 ± 0.4% and 2.2 ± 0.8% | MePOX-HssAChE Reactivation (% ± SD) [1]: 4.2 ± 0.5% and 10.1 ± 0.2% | DFP-HssAChE Reactivation (% ± SD) [2]: 0.7 ± 0.4% and 0.7 ± 1.0%

ON=Cc1cc[n+](CCCC[n+]2cccc3ccccc32)cc1 [Compound 12, 4-Hydroxyiminomethyl-1,1′-(but-1,4-diyl)-1-pyridinium-1′-quinolinium dibromide]
POX-HssAChE Reactivation (% ± SD) [3]: 0.6 ± 0.5% and 2.0 ± 0.1% | MePOX-HssAChE Reactivation (% ± SD) [1]: 2.2 ± 0.5% and 8.6 ± 0.4% | DFP-HssAChE Reactivation (% ± SD) [2]: 0.2 ± 1.0% and 0.8 ± 0.2%

N#Cc1cc[n+](CCCC[n+]2ccc(C=NO)cc2)cc1 [Compound 22, 4-Carbonitril-4′-hydroxyiminomethyl-1,1′-(but-1,4-diyl)-bispyridinium dibromide]
MePOX-HssAChE Reactivation (% ± SD) [1]: 11.1 ± 0.1% and 13.8 ± 0.3% | DFP-HssAChE Reactivation (% ± SD) [2]: 1.7 ± 0.5% and 0.4 ± 0.2%

Cc1cc[n+](CCCC[n+]2ccc(C=NO)cc2)cc1.[Br-].[Br-] [Compound 14, 4-Hydroxyiminomethyl-4′-methyl-1,1′-(but-1,4-diyl)-bispyridinium dibromide]
MePOX-HssAChE Reactivation (% ± SD) [1]: 9.5 ± 0.5% and 9.4 ± 0.2% | DFP-HssAChE Reactivation (% ± SD) [2]: 1.1 ± 0.4% and 0.8 ± 0.3%

CC(=O)c1cc[n+](CCCC[n+]2ccc(C=NO)cc2)cc1.[Br-].[Br-] [Compound 19, 4-Hydroxyiminomethyl-4′-methylcarbonyl-1,1′-(but-1,4-diyl)-bispyridinium dibromide]
POX-HssAChE Reactivation (% ± SD) [3]: 11.9 ± 1.0% and 3.9 ± 0.3% | MePOX-HssAChE Reactivation (% ± SD) [1]: 5.2 ± 0.4% and 7.5 ± 0.1% | DFP-HssAChE Reactivation (% ± SD) [2]: 1.5 ± 0.3% and 1.0 ± 0.2%

ON=Cc1cc[n+](CCCC[n+]2ccc(/C=N/O)cc2)cc1 [Compound 7, reference compound]
MePOX-HssAChE Reactivation (% ± SD) [1]: 17.9 ± 0.1% and 21.2 ± 0.4% | DFP-HssAChE Reactivation (% ± SD) [2]: 1.4 ± 0.5% and 1.4 ± 0.2%

CC(C)(C)c1cc[n+](CCCC[n+]2ccc(C=NO)cc2)cc1.[Br-].[Br-] [Compound 15, 4-Hydroxyiminomethyl-4′-(1,1-dimethylethyl)-1,1′-(but-1,4-diyl)-bispyridinium dibromide]
MePOX-HssAChE Reactivation (% ± SD) [1]: 4.0 ± 0.5% and 7.6 ± 0.5% | DFP-HssAChE Reactivation (% ± SD) [2]: 1.7 ± 0.5% and 0.8 ± 0.3%

OCc1cc[n+](CCCC[n+]2ccc(C=NO)cc2)cc1.[Br-].[Br-] [Compound 18, 4-Hydroxyiminomethyl-4′-hydroxymethyl-1,1′-(but-1,4-diyl)-bispyridinium dibromide]
MePOX-HssAChE Reactivation (% ± SD) [1]: 6.7 ± 0.3% and 8.1 ± 0.3% | DFP-HssAChE Reactivation (% ± SD) [2]: 3.8 ± 1.0% and 1.4 ± 0.4%

ON=Cc1cc[n+](CCCC[n+]2ccccc2)cc1.[Br-].[Br-] [Compound 10, 4-Hydroxyiminomethyl-1,1′-(but-1,4-diyl)-bispyridinium dibromide]
MePOX-HssAChE Reactivation (% ± SD) [1]: 14.3 ± 0.8% and 13.2 ± 0.1% | DFP-HssAChE Reactivation (% ± SD) [2]: 2.4 ± 0.5% and 0.4 ± 0.3%

ON=Cc1cc[n+](C[n+]2ccc(C=NO)cc2)cc1 [Compound 5, methoxime, reference compound]
MePOX-HssAChE Reactivation (% ± SD) [1]: 14.2 ± 0.1% and 14.3 ± 0.2% | DFP-HssAChE Reactivation (% ± SD) [2]: 2.4 ± 0.1% and 0.6 ± 0.3%

ON=Cc1cc[n+](CCCC[n+]2ccc(-c3ccccc3)cc2)cc1.[Br-].[Br-] [Compound 16, 4-Hydroxyiminomethyl-4′-phenyl-1,1′-(but-1,4-diyl)-bispyridinium dibromide]
POX-HssAChE Reactivation (% ± SD) [3]: 6.9 ± 0.4% and 8.9 ± 0.5% | MePOX-HssAChE Reactivation (% ± SD) [1]: 1.7 ± 0.3% and 6.2 ± 0.4% | DFP-HssAChE Reactivation (% ± SD) [2]: 0.7 ± 0.2% and 1.0 ± 0.3%

ON=Cc1cc[n+](CCCC[n+]2ccc(Cc3ccccc3)cc2)cc1.[Br-].[Br-] [Compound 17, 4-Hydroxyiminomethyl-4′-phenylmethyl-1,1′-(but-1,4-diyl)-bispyridinium dibromide]
POX-HssAChE Reactivation (% ± SD) [3]: 1.2 ± 0.1% and 4.7 ± 0.3% | MePOX-HssAChE Reactivation (% ± SD) [1]: 0.0 ± 0.1% and 3.8 ± 0.4% | DFP-HssAChE Reactivation (% ± SD) [2]: 0.0 ± 0.5% and 0.8 ± 0.2%

— paper PMC6225275 (Molecules : A Journal of Synthetic Chemistry and Natural …, 2018)
